The source of these data is ChEMBL document CHEMBL5321270, “Discovery of Pyrazolone Carbothioamide Derivatives as Inhibitors of the Pdr1-KIX Interaction for Combinational Treatment of Azole-Resistant Candidiasis” (J Med Chem, 2023).

The test system of test [1] is Candida albicans. Briefly: Antifungal activity against Candida albicans 103 assessed as fungal growth inhibition incubated for 48 hrs by microplate reader assay. The test is classed as functional, organism-based.
For test [2], the system named is Nakaseomyces glabratus. The test can be described thus: Antifungal activity against fluconazole-resistant Candida glabrata 9256 assessed as fungal growth inhibition incubated for 48 hrs by microplate reader assay. It counts as functional.
Test [3] is described as follows: Inhibition of fluorescent probe FITC tagged PDR1-KIX domain (unknown origin) protein-protein interaction assessed as inhibition constant incubated for 2 hrs by fluorescence polarization binding assay. A general note: Polarisation of emitted light reports the rotation of a fluorescent probe.
The test system of test [4] is Nakaseomyces glabratus. Briefly: Synergistic antifungal activity against fluconazole-resistant Candida glabrata 0161 assessed as fractional inhibitory concentration index incubated for 48 hrs in presence of fluconazole by checkerboard microdilution method. The test is classed as functional. (Dilution methods test growth across graded concentrations, often in twofold steps.)

The subject of test [5] is Candida albicans. The test can be described thus: Antifungal activity against Candida albicans 0029 assessed as fungal growth inhibition incubated for 48 hrs by microplate reader assay. It counts as functional, organism-based.
Test [6] has as its system Nakaseomyces glabratus. Briefly: Antifungal activity against fluconazole-resistant Candida glabrata 0161 assessed as fractional inhibitory concentration incubated for 48 hrs in presence of fluconazole by microplate reader assay. It counts as functional.
Test [7] has as its system Nakaseomyces glabratus. Briefly: Antifungal activity against fluconazole-sensitive Candida glabrata 7669 assessed as fungal growth inhibition incubated for 48 hrs by microplate reader assay. It counts as functional, organism-based.
For test [8], the system named is Candida albicans. Briefly: Antifungal activity against Candida albicans 5314 assessed as fungal growth inhibition incubated for 48 hrs by microplate reader assay. It counts as functional, organism-based.
The subject of test [9] is Nakaseomyces glabratus. The test can be described thus: Antifungal activity against fluconazole-resistant Candida glabrata 0161 assessed as fungal growth inhibition incubated for 48 hrs by microplate reader assay. It counts as functional.
Test [10] concerns Nakaseomyces glabratus. The test can be described thus: Antifungal activity against fluconazole-resistant Candida glabrata 0161 assessed as fluconazole fractional inhibitory concentration incubated for 48 hrs in presence of fluconazole by microplate reader assay. The test is classed as functional.
In test [11] the test system is Nakaseomyces glabratus. Briefly: Antifungal activity against fluconazole-resistant Candida glabrata 8535 assessed as fungal growth inhibition incubated for 48 hrs by microplate reader assay. It counts as functional.

Molecules are shown by their SMILES. Values after ≈ are worked out from the molar mass of the structure shown. Active and inactive are the calls of the source. The calls are words filed in the database; no cut-off is given here.

One may read the Ki as the dissociation constant of the complex between target and ligand, obtained from inhibition or displacement. The term MIC denotes the lowest concentration that inhibits growth of the organism.

For `N#CCC(=O)NNC(=S)Nc1ccc(Cl)cc1Cl`, the outcome with Candida albicans [1], in the test on Nakaseomyces glabratus [2], in the test with Candida albicans [5], with Nakaseomyces glabratus [7], in the test on Candida albicans [8] and in the test with Nakaseomyces glabratus [11] was inactive. Also, in test [3], the Ki came out at 37.3 µM. Further, the “fractional inhibitory concentration index (FICI)” value in the test on Nakaseomyces glabratus [4] turned out to be 0.56. In the test with Nakaseomyces glabratus [6], the FIC was determined as 8 µg/mL. Further, the minimum inhibitory concentration (MIC) with Nakaseomyces glabratus [9] was determined as 16 µg/mL (≈ 52.8 µM). For the same compound, the “fluconazole MIC in combination” value in the test with Nakaseomyces glabratus [10] was found to be 2 µg/mL.
On to `N#CCC(=O)NNC(=S)Nc1ccccc1Cl`, for which the outcome in the test on Candida albicans [1], in the test with Nakaseomyces glabratus [2], in the test on Candida albicans [5], in the test on Nakaseomyces glabratus [7], with Candida albicans [8] and in the test with Nakaseomyces glabratus [11] was inactive. Further, the Ki in [3] is 175 µM. The “fractional inhibitory concentration index (FICI)” value in the test with Nakaseomyces glabratus [4] is 0.56. In addition, the FIC in the test on Nakaseomyces glabratus [6] came to 16 µg/mL. For the same compound, the MIC in the test with Nakaseomyces glabratus [9] worked out at 32 µg/mL (≈ 119 µM). Also, in the test with Nakaseomyces glabratus [10], the “fluconazole MIC in combination” value is 2 µg/mL.
Turning to `N#CCC(=O)NNC(=S)Nc1ccc(I)cc1`, the outcome in the test with Candida albicans [1], in the test with Nakaseomyces glabratus [2], in the test with Candida albicans [5], in the test with Nakaseomyces glabratus [7], in the test on Candida albicans [8] and in the test on Nakaseomyces glabratus [11] was inactive. Further, the Ki in test [3] amounted to 153 µM. Besides, the “fractional inhibitory concentration index (FICI)” value in the test with Nakaseomyces glabratus [4] is reported as 0.25. For the same compound, the FIC with Nakaseomyces glabratus [6] is 2 µg/mL. In addition, in the test with Nakaseomyces glabratus [9], the MIC is 16 µg/mL (≈ 44.4 µM). Moreover, the “fluconazole MIC in combination” value in the test with Nakaseomyces glabratus [10] amounted to 4 µg/mL.
Turning to `N#CCC(=O)NNC(=S)Nc1ccc(N2CCOCC2)cc1`, the outcome with Candida albicans [1], in the test with Nakaseomyces glabratus [2], in the test on Candida albicans [5], with Nakaseomyces glabratus [7], in the test on Candida albicans [8] and in the test with Nakaseomyces glabratus [11] was inactive. In addition, in test [3], the Ki is 622 µM. Moreover, in the test with Nakaseomyces glabratus [4], the “fractional inhibitory concentration index (FICI)” value is listed as 0.52. Besides, the FIC in the test with Nakaseomyces glabratus [6] is 8 µg/mL. The minimum inhibitory concentration (MIC) in the test on Nakaseomyces glabratus [9] is 16 µg/mL (≈ 50.1 µM). In addition, the “fluconazole MIC in combination” value in the test with Nakaseomyces glabratus [10] came out at 0.5 µg/mL.
In the case of `N#CCC(=O)NNC(=S)Nc1ccc2c(c1)CCC2`, the outcome in the test with Candida albicans [1], in the test with Nakaseomyces glabratus [2], in the test on Candida albicans [5], with Nakaseomyces glabratus [7], in the test with Candida albicans [8] and with Nakaseomyces glabratus [11] was inactive. Besides, the inhibition constant Ki in test [3] is 256 µM. For the same compound, in the test with Nakaseomyces glabratus [4], the “fractional inhibitory concentration index (FICI)” value amounted to 0.53. Moreover, in the test on Nakaseomyces glabratus [6], the FIC turned out to be 8 µg/mL. The MIC with Nakaseomyces glabratus [9] worked out at 16 µg/mL (≈ 58.3 µM). The “fluconazole MIC in combination” value in the test with Nakaseomyces glabratus [10] came out at 1 µg/mL.
Take `Cc1ccc(NC(=S)NNC(=O)CC#N)cc1`: the result in the test with Candida albicans [1], with Nakaseomyces glabratus [2], in the test on Candida albicans [5], in the test with Nakaseomyces glabratus [7], in the test with Candida albicans [8] and with Nakaseomyces glabratus [11] was inactive. For the same compound, the inhibitory constant (Ki) in test [3] was determined as 476 µM. Moreover, the “fractional inhibitory concentration index (FICI)” value in the test with Nakaseomyces glabratus [4] stood at 0.53. Also, the FIC with Nakaseomyces glabratus [6] is 2 µg/mL. Besides, in the test with Nakaseomyces glabratus [9], the minimal inhibitory concentration (MIC) worked out at 64 µg/mL (≈ 258 µM). Further, in the test with Nakaseomyces glabratus [10], the “fluconazole MIC in combination” value was 16 µg/mL.
With `N#CCC(=O)NNC(=S)Nc1ccc(Cl)nc1`, the outcome in the test with Candida albicans [1], with Nakaseomyces glabratus [2], in the test with Candida albicans [5], with Nakaseomyces glabratus [7], in the test with Candida albicans [8] and with Nakaseomyces glabratus [11] was inactive. Besides, the inhibition constant (Ki) in [3] is 54.9 µM. In addition, in the test with Nakaseomyces glabratus [4], the “fractional inhibitory concentration index (FICI)” value came to 0.38. Also, the FIC with Nakaseomyces glabratus [6] amounted to 4 µg/mL. The MIC in the test with Nakaseomyces glabratus [9] was 32 µg/mL (≈ 119 µM). The “fluconazole MIC in combination” value with Nakaseomyces glabratus [10] is 8 µg/mL.
Regarding `N#CCC(=O)NNC(=S)Nc1cccc(Cl)c1Cl`, the result in the test on Candida albicans [1], in the test on Nakaseomyces glabratus [2], in the test on Candida albicans [5], in the test on Nakaseomyces glabratus [7], in the test with Candida albicans [8] and in the test on Nakaseomyces glabratus [11] was inactive. The Ki in test [3] was found to be 37.1 µM. In the test on Nakaseomyces glabratus [4], the “fractional inhibitory concentration index (FICI)” value worked out at 0.56. Also, in the test with Nakaseomyces glabratus [6], the FIC stood at 8 µg/mL. In addition, the MIC in the test with Nakaseomyces glabratus [9] was 16 µg/mL (≈ 52.8 µM). The “fluconazole MIC in combination” value with Nakaseomyces glabratus [10] is 2 µg/mL.
On to `N#CCC(=O)NNC(=S)Nc1ccc(Cl)cc1`, for which the outcome in the test with Candida albicans [1], with Nakaseomyces glabratus [2], in the test on Candida albicans [5], with Nakaseomyces glabratus [7], with Candida albicans [8] and in the test on Nakaseomyces glabratus [11] was inactive. In addition, in test [3], the Ki came to 139 µM. The “fractional inhibitory concentration index (FICI)” value with Nakaseomyces glabratus [4] was 0.53. The FIC in the test with Nakaseomyces glabratus [6] was found to be 2 µg/mL. Also, in the test with Nakaseomyces glabratus [9], the MIC came out at 64 µg/mL (≈ 238 µM). In addition, the “fluconazole MIC in combination” value in the test with Nakaseomyces glabratus [10] was determined as 16 µg/mL.
On to `N#CCC(=O)NNC(=O)Nc1ccc(Cl)cc1`, for which the result in the test on Candida albicans [1], in the test on Nakaseomyces glabratus [2], in the test on Candida albicans [5], in the test on Nakaseomyces glabratus [7], in the test on Candida albicans [8] and in the test with Nakaseomyces glabratus [11] was inactive. In addition, the Ki in test [3] stood at 275 µM. Moreover, the “fractional inhibitory concentration index (FICI)” value in the test with Nakaseomyces glabratus [4] was determined as 0.56. Further, in the test on Nakaseomyces glabratus [6], the FIC stood at 4 µg/mL. Further, in the test on Nakaseomyces glabratus [9], the MIC was 64 µg/mL (≈ 253 µM). The “fluconazole MIC in combination” value in the test with Nakaseomyces glabratus [10] was determined as 16 µg/mL.
Take `N#CCC(=O)NNC(=O)Nc1cccc(Cl)c1`: the outcome in the test with Candida albicans [1], in the test on Nakaseomyces glabratus [2], in the test on Candida albicans [5], with Nakaseomyces glabratus [7], with Candida albicans [8] and in the test with Nakaseomyces glabratus [11] was inactive. For the same compound, in test [3], the inhibition constant Ki was found to be 119 µM. The “fractional inhibitory concentration index (FICI)” value in the test with Nakaseomyces glabratus [4] is given as 0.53. Besides, the FIC with Nakaseomyces glabratus [6] is 2 µg/mL. Besides, in the test with Nakaseomyces glabratus [9], the MIC was greater than 64 µg/mL. Moreover, the “fluconazole MIC in combination” value in the test with Nakaseomyces glabratus [10] was 16 µg/mL.
As for `COc1ccc(NC(=S)NNC(=O)CC#N)cc1`, the result with Candida albicans [1], in the test with Nakaseomyces glabratus [2], in the test on Candida albicans [5], in the test on Nakaseomyces glabratus [7], in the test on Candida albicans [8] and in the test with Nakaseomyces glabratus [11] was inactive. Also, in [3], the Ki was 348 µM. Also, the “fractional inhibitory concentration index (FICI)” value in the test on Nakaseomyces glabratus [4] came to 0.53. Moreover, the FIC in the test with Nakaseomyces glabratus [6] was 2 µg/mL. Moreover, the minimal inhibitory concentration (MIC) in the test on Nakaseomyces glabratus [9] is greater than 64 µg/mL. The “fluconazole MIC in combination” value in the test with Nakaseomyces glabratus [10] is 16 µg/mL.
Regarding `N#CCC(=O)NNC(=S)Nc1ccc2[nH]ccc2c1`, the outcome in the test on Candida albicans [1], in the test on Nakaseomyces glabratus [2], with Candida albicans [5], in the test on Nakaseomyces glabratus [7], with Candida albicans [8] and in the test on Nakaseomyces glabratus [11] was inactive. Moreover, the inhibitory constant (Ki) in test [3] was found to be 470 µM. In addition, the “fractional inhibitory concentration index (FICI)” value with Nakaseomyces glabratus [4] was 0.53. Besides, in the test with Nakaseomyces glabratus [6], the FIC stood at 2 µg/mL. In addition, the MIC in the test on Nakaseomyces glabratus [9] was greater than 64 µg/mL. In addition, in the test on Nakaseomyces glabratus [10], the “fluconazole MIC in combination” value turned out to be 16 µg/mL.
